Measured values taken from patent US20140004499A1, “BIOSURFACE ENGINEERING” (priority 2011, published 2014).

What was measured:
[1] = test system: O group red blood cells (RBCs); test: Serology of kodecytes with monoclonal preparations; format: cell-based; set-up: scale not given here; conditions: kodecytes prepared at 200 μg/mL construct
Experimental: The use of aqueous solutions of the construct designated Atri-S1-chol (I), the construct designated Atri-S1-S5-DOPE (V) and the construct designated Atri-S1-S5-S4-S5-DOPE (VI) in the localisation of Atri (F) to cell surfaces was also compared. (The constructs designated Atri-S1-S5-DOPE (V) and […] (VI) (FIG. 11) were prepared according to Bovin et al (2005) and Bovin et al (2009)). Volumes (40 μL) of packed, washed O group red blood cells (RBCs) were resuspended in equal volumes of solutions of each of the three constructs at a concentration of 200 μg/mL in PBS. The resuspended RBCs were incubated at room temperature for 4 hours prior to storage at 4° C. overnight. Serology was performed as described by Bovin et al (2005) using a range of monoclonal preparations and sera.

[2] = test system: red blood cells (RBCs); test: Localisation of biotin to RBC surface by attachment of avidinylated beads (DYNABEADS M-280); format: cell-based
Experimental: The use of aqueous solutions of the construct designated Biotin-S3-S4-S2-chol (III) and the construct designated Biotin-S3-S4-S5-DOPE (IV) in the localisation of biotin (F) to cell surfaces was also compared. Solutions of the two constructs were prepared at substantially equimolar concentrations. The use of the solutions was assessed across a concentration range from 0 to 500 μM (0.5 mM). A 0.5 mM solution of the construct designated Biotin-S3-S4-S2-chol (III) was prepared by dissolving 0.4 mg of the construct in 514 μL of PBS. […] A 0.5 mM stock solution of the construct designated Biotin-S3-S4-S5-DOPE (IV) was prepared by dissolving 2 mg of the construct in 1942 μL of phosphate buffered saline (PBS). Each 0.5 mM solution was warmed to 37° C. for 10 minutes, vortexed and sonicated for 30 seconds to ensure complete dissolution of the construct in the aqueous medium. A dilution series was prepared for each construct to provide a total volume of 100 μL at each of the following concentrations: […]. Equal volumes (40 μL) of packed, washed red blood cells (RBCs) and solutions of constructs at different concentrations were mixed in a glass kimble tube. […]
(§1) Two equal volumes were taken from each tube and centrifuged (300×g for 2 minutes) to provide two equivalent packed cells volumes for further evaluation. One of each pair of equivalent packed cell volumes was evaluated for localisation of the biofunctional moiety biotin to the surface of the RBCs by conjugation with avidin ALEXAFLUOR™. One of each pair of the equivalent packed cell volumes was evaluated for localisation of the biofunctional moiety biotin to the surface of the RBCs by conjugation to avidinylated beads (DYNABEADS™ M-280).
Conjugation with avidinylated beads (DYNABEADS™ M-280) was performed. […] The attachment of beads to cells was scored at 400× and 800× magnification on a compound microscope. An estimate of the number of beads and the presence of cell clusters was recorded for each group and compared with a negative control.

[3] = test system: red blood cells (RBCs); test: Localisation of biotin to RBC surface by conjugation with avidin ALEXAFLUOR (fluorescence microscopy); format: cell-based; set-up: key to fluorescent signal intensity grade: 1 (low); 2 (moderate); 3 (bright); 4 (very bright); conditions: for staining at higher concentrations: 100 and 500 μM; for fluorescent signal intensity grade: constructs at concentrations of 10 and 25 μM, avidin ALEXAFLUOR
Experimental: (§2) The use of aqueous solutions of the construct designated Biotin-S3-S4-S2-chol (III) and the construct designated Biotin-S3-S4-S5-DOPE (IV) in the localisation of biotin (F) to cell surfaces was also compared. Solutions of the two constructs were prepared at substantially equimolar concentrations. The use of the solutions was assessed across a concentration range from 0 to 500 μM (0.5 mM). A 0.5 mM solution of the construct designated Biotin-S3-S4-S2-chol (III) was prepared by dissolving 0.4 mg of the construct in 514 μL of PBS. […] A 0.5 mM stock solution of the construct designated Biotin-S3-S4-S5-DOPE (IV) was prepared by dissolving 2 mg of the construct in 1942 μL of phosphate buffered saline (PBS). Each 0.5 mM solution was warmed to 37° C. for 10 minutes, vortexed and sonicated for 30 seconds to ensure complete dissolution of the construct in the aqueous medium. A dilution series was prepared for each construct to provide a total volume of 100 μL at each of the following concentrations: […]. Equal volumes (40 μL) of packed, washed red blood cells (RBCs) and solutions of constructs at different concentrations were mixed in a glass kimble tube. The tubes were incubated at 37° C. for 20 minutes in a water bath with periodic (3 x) agitation. The incubated cells were washed 3× with PBS before being resuspended in a cell preservative (CELPRESOL™) for storage at 4° C. overnight.
as §1
Conjugation with avidin ALEXAFLUOR™ was evaluated as described in the publication of Oliver et al (2011). An aliquot containing 0.02 mg avidin ALEXAFLUOR™ was mixed with a volume ([…]) of PBS containing BSA to provide a 0.1 mg/mL solution. Equal volumes 20 μL of packed RBCs and the solution of avidin ALEXAFLUOR™ were mixed and incubated at 37° C. for 30 minutes. The cells were then washed 3× with PBS before placing a drop (10 μL) on a glass microscope slide for fluorescent microscopy (WIB filter at 400× magnification). Cells were graded for fluorescence intensity over two micrograph fields of view. Grades determined via the eye piece were correlated with the corresponding photomicrographs (1.9 sec exposure). Grades were assigned according to the following scale: 1 (low), 2 (moderate), 3 (bright) and 4 (very bright). The morphology of the cells was also recorded (“normal” or “poiked”).

[4] = Dissolution of construct in PBS; format: physicochemical; conditions: 0.5 mM: 0.4 mg in 514 μL of PBS
Experimental: as §2, with “The incubated cells were washed 3× with PBS before being resuspended in a cell preservative (CELPRESOL™) for storage at 4° C. overnight.” left out

## CCCCCCCCC=CCCCCCCCC(=O)OCC(COP(=O)([O-])OCCNC(=O)CCCCC(=O)NCCCOC1OC(CO)C(O)C(OC2OC(CO)C(O)C(O)C2NC(C)=O)C1OC1OC(C)C(O)C(O)C1O)OC(=O)CCCCCCCC=CCCCCCCCC.[Na+] (stereo not drawn) [V, reference compound]
[1]; Anti-A, B Diagast
  Serology score: 0
[1]; Anti-B (ABO2) Diagast
  Serology score: 0
[1]; Anti-B ALBAclone
  Serology score: 0
[1]; Anti-B Biotec
  Serology score: 0
[1]; Anti-B CSL Epiclone
  Serology score: 0
[1]; Anti-B CSL
  Serology score: 0
[1]; Anti-B Diagast
  Serology score: 0
[1]; Anti-B Diagnostics Scotland
  Serology score: 0
[1]; Anti-B Dominion (Novaclone)
  Serology score: 0
[1]; Anti-B Gama
  Serology score: 0
[1]; Anti-B Immucor
  Serology score: 0
[1]; Anti-B Millipore
  Serology score: 0
[1]; Anti-B Ortho-BioClone
  Serology score: 0
[1]; Anti-B Ortho-MoltenClone
  Serology score: 0
[1]; Anti-B Span
  Serology score: 0
[1]; Anti-B ortho
  Serology score: 0

## CCCCCCCC/C=C\CCCCCCCC(=O)OCC(COP(=O)([O-])OCCNC(=O)CCCCC(=O)NCC(=O)NCC(=O)N(CC(=O)[O-])CC(=O)NCC(=O)NCC(=O)N(CC(=O)[O-])CC(=O)NCCNC(=O)CN(CC(=O)[O-])C(=O)CNC(=O)CNC(=O)CN(CC(=O)[O-])C(=O)CNC(=O)CNC(=O)CCCC[C@@H]1SC[C@@H]2NC(=O)N[C@@H]21)OC(=O)CCCCCCC/C=C\CCCCCCCC.[Na+].[Na+].[Na+].[Na+].[Na+] (stereo partly drawn) [Biotin-S3-S4-S5-DOPE (IV), reference compound]
[2]
  attachment of avidinylated beads, comparison of the two constructs: comparable results
[3]
  staining at higher concentrations: poor staining
  fluorescent signal intensity grade: 2

## CC(C)CCC[C@@H](C)[C@H]1CC[C@H]2[C@@H]3CC=C4C[C@@H](OC(=O)NCCCCC(=O)NCC(=O)NCC(=O)N(CC(=O)[O-])CC(=O)NCC(=O)NCC(=O)N(CC(=O)[O-])CC(=O)NCCNC(=O)CN(CC(=O)[O-])C(=O)CNC(=O)CNC(=O)CN(CC(=O)[O-])C(=O)CNC(=O)CNC(=O)CCCC[C@@H]5SC[C@@H]6NC(=O)N[C@@H]65)CC[C@]4(C)[C@H]3CC[C@]12C.[Na+].[Na+].[Na+].[Na+] [Biotin-S3-S4-S2-chol (III)]
[2]
  attachment of avidinylated beads, comparison of the two constructs: comparable results
[2]; 25 μM construct
  number of beads attached to each RBC and clustering of RBCs into groups, relative to the other construct: slightly greater
[3]
  staining at higher concentrations: poor staining
  fluorescent signal intensity grade: 2
[3]; compared with Biotin-S3-S4-S5-DOPE (IV)
  homogeneity of modification of cell surface: more homogenous modification over the entire cell surface and lesser inter-cell variation
[3]; lower concentration ranges (5 to 75 μM)
  fluorescent signal intensity relative to cells prepared using Biotin-S3-S4-S5-DOPE (IV): moderately lower
[4]
  dissolution in PBS: readily dissolved to provide a clear solution

## CC(=O)NC1C(OC2C(O)C(CO)OC(OCCCNC(=O)OC3CCC4(C)C(=CCC5C4CCC4(C)C(C(C)CCCC(C)C)CCC54)C3)C2OC2OC(C)C(O)C(O)C2O)OC(CO)C(O)C1O (stereo not drawn) [I]
[1]; Anti-A (ABO1) Diagast
  Serology score: 0
[1]; Anti-A ALBAclone
  Serology score: 0
[1]; Anti-A BRG
  Serology score: 0
[1]; Anti-A Biotest
  Serology score: 0
[1]; Anti-A CSL Epiclone
  Serology score: 0
[1]; Anti-A CSL
  Serology score: 0
[1]; Anti-A Diagast
  Serology score: 0
[1]; Anti-A Diagnostics Scotland
  Serology score: 0
[1]; Anti-A Lorne
  Serology score: 0
[1]; Anti-A Ortho-BioClone
  Serology score: 0
[1]; Anti-A Span
  Serology score: 0
[1]; Anti-A ortho
  Serology score: 0
[1]; Anti-A, B CSL
  Serology score: 0
[1]; Anti-A, B Diagast
  Serology score: 0
[1]; Anti-A, B Diagnostics Scotland
  Serology score: 0
[1]; Anti-A/B ALBAclone
  Serology score: 0
[1]; Anti-A/B CSL Epiclone
  Serology score: 0
[1]; Anti-A/B Dominion (Novaclone)
  Serology score: 0
[1]; Anti-B (ABO2) Diagast
  Serology score: 0
[1]; Anti-B ALBAclone
  Serology score: 0
[1]; Anti-B Biotec
  Serology score: 0
[1]; Anti-B CSL Epiclone
  Serology score: 0
[1]; Anti-B CSL
  Serology score: 0
[1]; Anti-B Diagast
  Serology score: 0
[1]; Anti-B Diagnostics Scotland
  Serology score: 0
[1]; Anti-B Dominion (Novaclone)
  Serology score: 0
[1]; Anti-B Gama
  Serology score: 0
[1]; Anti-B Immucor
  Serology score: 0
[1]; Anti-B Millipore
  Serology score: 0
[1]; Anti-B Ortho-BioClone
  Serology score: 0
[1]; Anti-B Ortho-MoltenClone
  Serology score: 0
[1]; Anti-B Span
  Serology score: 0
[1]; Anti-B ortho
  Serology score: 0
[1]; Diagast Anti-A/B (ABO3)
  Serology score: 0

## CCCCCCCC/C=C\CCCCCCCC(=O)OCC(COP(=O)([O-])OCCNC(=O)CCCCC(=O)NCC(=O)NCC(=O)N(CC(=O)[O-])CC(=O)NCC(=O)NCC(=O)N(CC(=O)[O-])CC(=O)NCCNC(=O)CN(CC(=O)[O-])C(=O)CNC(=O)CNC(=O)CN(CC(=O)[O-])C(=O)CNC(=O)CNC(=O)CCCCC(=O)NCCCO[C@@H]1O[C@H](CO)[C@H](O)[C@H](O[C@H]2O[C@H](CO)[C@H](O)[C@H](O)[C@H]2NC(C)=O)[C@H]1O[C@@H]1O[C@@H](C)[C@@H](O)[C@@H](O)[C@@H]1O)OC(=O)CCCCCCC/C=C\CCCCCCCC.[Na+].[Na+].[Na+].[Na+].[Na+] (stereo partly drawn) [VI, reference compound]
[1]; Anti-B (ABO2) Diagast
  Serology score: 0
[1]; Anti-B ALBAclone
  Serology score: 0
[1]; Anti-B Biotec
  Serology score: 0
[1]; Anti-B CSL Epiclone
  Serology score: 0
[1]; Anti-B CSL
  Serology score: 0
[1]; Anti-B Diagast
  Serology score: 0
[1]; Anti-B Diagnostics Scotland
  Serology score: 0
[1]; Anti-B Dominion (Novaclone)
  Serology score: 0
[1]; Anti-B Gama
  Serology score: 0
[1]; Anti-B Immucor
  Serology score: 0
[1]; Anti-B Millipore
  Serology score: 0
[1]; Anti-B Ortho-BioClone
  Serology score: 0
[1]; Anti-B Ortho-MoltenClone
  Serology score: 0
[1]; Anti-B Span
  Serology score: 0
[1]; Anti-B ortho
  Serology score: 0
